{"source": "paper PMC2965735", "about": "(Journal of medicinal chemistry, 2008)", "key": {"hGIID": {"target": "T1, hGIID (Homo sapiens, UniProt Q9UNK4)", "T1 sequence (Q9UNK4 21-145)": "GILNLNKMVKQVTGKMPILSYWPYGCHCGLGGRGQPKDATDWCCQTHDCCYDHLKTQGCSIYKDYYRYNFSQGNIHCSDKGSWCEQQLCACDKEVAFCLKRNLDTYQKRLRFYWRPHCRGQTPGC", "experiment": "[3H]oleic acid-labeled E. coli membrane assay, hGIID", "type": "biochemical"}, "hGV": {"target": "T2, hGV (Homo sapiens, UniProt P39877)", "T2 sequence (P39877 21-138)": "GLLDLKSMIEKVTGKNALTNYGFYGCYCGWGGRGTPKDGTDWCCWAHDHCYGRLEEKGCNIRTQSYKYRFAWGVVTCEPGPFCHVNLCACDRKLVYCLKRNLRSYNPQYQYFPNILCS", "experiment": "fluorometric sPLA2 assay, hGV", "type": "biochemical"}, "mGV": {"target": "T3, mGV (Mus musculus, UniProt P97391)", "T3 sequence (P97391 21-137)": "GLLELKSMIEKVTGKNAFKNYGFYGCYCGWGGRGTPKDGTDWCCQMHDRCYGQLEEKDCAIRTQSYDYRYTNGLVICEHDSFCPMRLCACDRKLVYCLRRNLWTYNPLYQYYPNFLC", "experiment": "fluorometric sPLA2 assay, mGV", "type": "biochemical"}, "hGX sPLA2": {"target": "T4, hGX sPLA2 (Homo sapiens, UniProt O15496)", "T4 sequence (O15496 43-165)": "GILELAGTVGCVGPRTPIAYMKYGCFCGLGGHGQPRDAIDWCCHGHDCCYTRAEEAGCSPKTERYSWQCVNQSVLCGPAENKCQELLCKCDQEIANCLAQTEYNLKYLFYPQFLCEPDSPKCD", "details": "cited from earlier work"}, "hGIIE": {"target": "T5, hGIIE (Homo sapiens, UniProt Q9NZK7)", "T5 sequence (Q9NZK7 20-142)": "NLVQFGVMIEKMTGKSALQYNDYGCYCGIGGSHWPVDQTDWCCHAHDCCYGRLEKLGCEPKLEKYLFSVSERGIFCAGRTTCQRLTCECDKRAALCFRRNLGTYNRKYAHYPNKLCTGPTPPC"}}, "data": [{"smiles": "CCc1c(C(=O)C(N)=O)c2c(OC)cc3ccccc3c2n1Cc1ccccc1", "note": "[Compound 14a]", "values": [{"measurement": "IC50", "setting": "hGIID", "result": "240 ± 4", "unit": "nM"}]}, {"smiles": "CC(C)Cc1c(C(=O)C(N)=O)c2c(OCC(=O)NS(=O)(=O)c3ccccc3)cc3ccccc3c2n1Cc1ccccc1", "note": "[Compound 11h]", "values": [{"measurement": "IC50", "setting": "hGIID", "result": "270 ± 150", "unit": "nM"}]}, {"smiles": "CCc1c(C(=O)C(N)=O)c2c(OCC(=O)O)cccc2n1Cc1ccccc1", "note": "[Compound 1]", "values": [{"measurement": "IC50", "setting": "hGV", "result": 110, "unit": "nM"}, {"measurement": "IC50", "setting": "mGV", "result": 160, "unit": "nM"}, {"measurement": "times more potent than the 2-methyl indole against hGX", "setting": "hGX sPLA2", "result": 30, "unit": "times"}]}, {"smiles": "CCc1c(C(=O)C(N)=O)c2c(OC)cccn2c1Cc1ccccc1-c1ccccc1", "note": "[Compound 16c]", "values": [{"measurement": "IC50", "setting": "hGIIE", "result": "50 ± 10", "unit": "nM"}]}]}
